system: IL-17 production in mouse splenocytes; experiment: Suppressive effect on IL-17 production by IL-23 stimulation in mouse splenocytes; format: cell-based; conditions: Splenocyte, 72 h, at 5 μmol/L of the test compound, 10 ng/mL human IL-23, 3 days, read-out: IL-17 production inhibition rate (%)
Protocol: Using mouse splenocytes, the suppressive effect of the cyclic amine derivative (I) or a pharmacologically acceptable salt thereof on IL-17 production by IL-23 stimulation was evaluated by a partially modified method mentioned in The Journal of Biological Chemistry, 2003, Vol. 278, No. 3, p. 1910-1914.
A single cell suspension was prepared from the spleen of C57BL/6J mice (male, 7 to 23 weeks old) (Charles River Laboratories Japan, Inc.) and splenocytes were prepared using Histopaque-1083 (Sigma-Aldrich Japan). The culture medium was used by adding 10% FBS (Gibco), 50 U/mL of penicillin 50 μg/mL of streptomycin (Gibco), 50 μmol/L of 2-mercaptoethanol (Gibco), and 100 U/mL of human IL-2 (Cell Science & Technology Institute, Inc.) to RPMI1640 medium (Gibco). The test compound was dissolved in DMSO and then diluted with the culture medium to have a final concentration of DMSO of 0.1% before use. Splenocytes (3×10^5 cells/well) prepared in the culture medium were seeded in wells of a 96-well flat-bottom plate (Corning Incorporated), the test compound and 10 ng/mL of human IL-23 (R & D systems, Inc.) were added thereto, and the cells were cultured at 37° C. under 5% CO2 for 3 days. A well without addition of human IL-23 and without addition of the test compound and a well with addition of human IL-23 and without addition of the test compound were prepared. After completion of the culture, the culture supernatant was collected and the IL-17 production amount in the supernatant was determined by ELISA method (R & D systems, Inc.).
The IL-17 production inhibition rate (%) was calculated from Formula 2. IL-17 production inhibition rate(%)=(1−((IL-17 production amount with addition of IL-23 and with addition of the test compound)−(IL-17 production amount without addition of IL-23 and without addition of the test compound))/((IL-17 production amount with addition of IL-23 and without addition of the test compound)−(IL-17 production amount without addition of IL-23 and without addition of the test compound)))×100 Formula 2

First: CC(=O)N1CCCCC1C(=O)Nc1ccc(-c2ccccc2OC(F)(F)F)c(Cl)c1 (stereo not shown) [Example 1, 1-acetyl-N-(2-chloro-2′-(trifluoromethoxy)-[1,1′-biphenyl]-4-yl)piperidine-2-carboxamide]
Second: CCC(=O)N1CCCCC1C(=O)Nc1ccc(-c2ccccc2OC(F)(F)F)c(Cl)c1 (stereo not shown) [Example 3, N-(2-chloro-2′-(trifluoromethoxy)-[1,1′-biphenyl]-4-yl)-1-propionylpiperidine-2-carboxamide]
The inhibition at 5 µM of the first is lower: 94% for the first, 98.6% for the second.

First: O=C(Nc1ccc(-c2ccccc2OC(F)(F)F)c(Cl)c1)C1CCCCN1C(=O)C(F)(F)F (stereo not shown) [Example 2, N-(2-chloro-2′-(trifluoromethoxy)-[1,1′-biphenyl]-4-yl)-1-(2,2,2-trifluoroacetyl)piperidine-2-carboxamide]
Second: O=C(Nc1ccc(-c2ccccc2OC(F)(F)F)c(Cl)c1)C1CCCCN1C(=O)C(F)F (stereo not shown) [Example 7, N-(2-chloro-2′-(trifluoromethoxy)-[1,1′-biphenyl]-4-yl)-1-(2,2-difluoroacetyl)piperidine-2-carboxamide]
The inhibition at 5 µM of the first is lower: 96.2% for the first, 99% for the second.

First: CN(C)CC(=O)N1CCCCC1C(=O)Nc1ccc(-c2ccccc2OC(F)(F)F)c(Cl)c1 (stereo not shown) [Example 6, N-(2-chloro-2′-(trifluoromethoxy)-[1,1′-biphenyl]-4-yl)-1-(2-(dimethylamino)acetyl)piperidine-2-carboxamide]
Second: CN(C)CCC(=O)N1CCCCC1C(=O)Nc1ccc(-c2ccccc2OC(F)(F)F)c(Cl)c1 (stereo not shown) [Example 33, N-(2-chloro-2′-(trifluoromethoxy)-[1,1′-biphenyl]-4-yl)-1-(3-(dimethylamino)propanoyl)piperidine-2-carboxamide]
The inhibition at 5 µM of the first is lower: 91.6% for the first, 98.3% for the second.

Compared with CC(=O)NCC(=O)N1CCCCC1C(=O)Nc1ccc(-c2ccccc2OC(F)(F)F)c(Cl)c1 (stereo not shown) [Example 9, 1-(2-acetamideacetyl)-N-(2-chloro-2′-(trifluoromethoxy)-[1,1′-biphenyl]-4-yl)piperidine-2-carboxamide], CC(=O)NCCC(=O)N1CCCCC1C(=O)Nc1ccc(-c2ccccc2OC(F)(F)F)c(Cl)c1 (stereo not shown) [Example 31, 1-(3-acetamidepropanoyl)-N-(2-chloro-2′-(trifluoromethoxy)-[1,1′-biphenyl]-4-yl)piperidine-2-carboxamide] is higher in inhibition at 5 µM: 94.6% for the first, 99.1% for the second.

Going from CNCC(=O)N1CCCCC1C(=O)Nc1ccc(-c2ccccc2OC(F)(F)F)c(Cl)c1 (stereo not shown) [Example 11, N-(2-chloro-2′-(trifluoromethoxy)-[1,1′-biphenyl]-4-yl)-1-(2-(methylamino)acetyl)piperidine-2-carboxamide] to CNCCC(=O)N1CCCCC1C(=O)Nc1ccc(-c2ccccc2OC(F)(F)F)c(Cl)c1 (stereo not shown) [Example 34, N-(2-chloro-2′-(trifluoromethoxy)-[1,1′-biphenyl]-4-yl)-1-(3-(methylamino)propanoyl)piperidine-2-carboxamide], the inhibition at 5 µM rises from 94.1% to 100%.

Going from CC(=O)N(C)CC(=O)N1CCCCC1C(=O)Nc1ccc(-c2ccccc2OC(F)(F)F)c(Cl)c1 (stereo not shown) [Example 12, N-(2-chloro-2′-(trifluoromethoxy)-[1,1′-biphenyl]-4-yl)-1-(2-(N-methylacetamide)acetyl)piperidine-2-carboxamide] to CC(=O)N(C)CCC(=O)N1CCCCC1C(=O)Nc1ccc(-c2ccccc2OC(F)(F)F)c(Cl)c1 (stereo not shown) [Example 35, N-(2-chloro-2′-(trifluoromethoxy)-[1,1′-biphenyl]-4-yl)-1-(3-(N-methylacetamide)propanoyl)piperidine-2-carboxamide], the inhibition at 5 µM falls from 96.1% to 94.9%.

Going from CC(=O)N1CC[C@H](O)C[C@@H]1C(=O)Nc1ccc(-c2ccccc2OC(F)(F)F)c(Cl)c1 [Example 24, (2R,4S)-1-acetyl-N-(2-chloro-2′-(trifluoromethoxy)-[1,1′-biphenyl]-4-yl)-4-hydroxypiperidine-2-carboxamide] to CC(=O)N1CC[C@@H](O)C[C@@H]1C(=O)Nc1ccc(-c2ccccc2OC(F)(F)F)c(Cl)c1 [Example 27, (2R,4R)-1-acetyl-N-(2-chloro-2′-(trifluoromethoxy)-[1,1′-biphenyl]-4-yl)-4-hydroxypiperidine-2-carboxamide], the inhibition at 5 µM rises from 95.7% to 97.4%.

Going from CS(=O)(=O)N1CC[C@H](O)C[C@@H]1C(=O)Nc1ccc(-c2ccccc2OC(F)(F)F)c(Cl)c1 [Example 26, (2R,4S)—N-(2-chloro-2′-(trifluoromethoxy)-[1,1′-biphenyl]-4-yl)-4-hydroxy-1-(methylsulfonyl)piperidine-2-carboxamide] to NCCC(=O)N1CCCCC1C(=O)Nc1ccc(-c2ccccc2OC(F)(F)F)c(Cl)c1 (stereo not shown) [Example 30, 1-(3-aminopropanoyl)-N-(2-chloro-2′-(trifluoromethoxy)-[1,1′-biphenyl]-4-yl)piperidine-2-carboxamide], the inhibition at 5 µM rises from 96.4% to 99.8%.

Compared with NCCC(=O)N1CCCC[C@@H]1C(=O)Nc1ccc(-c2ccccc2OC(F)(F)F)c(Cl)c1 [Example 38, (R)-1-(3-aminopropanoyl)-N-(2-chloro-2′-(trifluoromethoxy)-[1,1′-biphenyl]-4-yl)piperidine-2-carboxamide], CNCCC(=O)N1CCCC[C@@H]1C(=O)Nc1ccc(-c2ccccc2OC(F)(F)F)c(Cl)c1 [Example 41, (R)-N-(2-chloro-2′-(trifluoromethoxy)-[1,1′-biphenyl]-4-yl)-1-(3-(methylamino)propanoyl)piperidine-2-carboxamide] is higher in inhibition at 5 µM: 99% for the first, 99.1% for the second.

First: O=C(Nc1ccc(-c2ccccc2OC(F)(F)F)c(Cl)c1)[C@H]1CCCCN1C(=O)Cn1cnnc1 [Example 62, (R)-1-(2-(4H-1,2,4-triazol-4-yl)acetyl)-N-(2-chloro-2′-(trifluoromethoxy)-[1,1′-biphenyl]-4-yl)piperidine-2-carboxamide]
Second: O=C(Nc1ccc(-c2ccccc2OC(F)(F)F)c(Cl)c1)[C@H]1CCCCN1C(=O)Cn1cncn1 [Example 63, (R)-1-(2-(1H-1,2,4-triazol-1-yl)acetyl)-N-(2-chloro-2′-(trifluoromethoxy)-[1,1′-biphenyl]-4-yl)piperidine-2-carboxamide]
The inhibition at 5 µM of the first is higher: 100% for the first, 99.9% for the second.

First: CN(C)CCC(=O)N1CCCC[C@@H]1C(=O)Nc1ccc(-c2ccccc2OC(F)(F)F)c(Cl)c1 [Example 68, (R)-N-(2-chloro-2′-(trifluoromethoxy)-[1,1′-biphenyl]-4-yl)-1-(3-(dimethylamino)propanoyl)piperidine-2-carboxamide]
Second: O=C(O)CCCC(=O)N1CCCC[C@@H]1C(=O)Nc1ccc(-c2ccccc2OC(F)(F)F)c(Cl)c1 [Example 70, (R)-5-(2-((2-chloro-2′-(trifluoromethoxy)-[1,1′-biphenyl]-4-yl)carbamoyl)piperidin-1-yl)-5-oxopentanoic acid]
The inhibition at 5 µM of the first is lower: 99.4% for the first, 99.7% for the second.

target: T1, ligand-binding domain of RORγ (RORγ-LBD) (Homo sapiens, UniProt P51449); experiment: Inhibitory effect on RORγ-coactivator binding (LanthaScreen TR-FRET RORγ Coactivator Assay); conditions: at 33 μmol/L of the test compound; read-out: RORγ-coactivator binding inhibition rate (%)
T1 construct: purchased Invitrogen
T1 sequence (P51449 269-508 limits assumed): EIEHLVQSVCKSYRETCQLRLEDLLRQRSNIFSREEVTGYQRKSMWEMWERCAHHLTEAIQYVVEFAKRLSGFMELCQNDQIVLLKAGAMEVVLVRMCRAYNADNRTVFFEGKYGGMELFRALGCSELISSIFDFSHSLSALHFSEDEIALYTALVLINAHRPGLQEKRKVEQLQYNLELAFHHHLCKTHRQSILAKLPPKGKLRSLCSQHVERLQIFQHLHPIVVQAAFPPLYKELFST
Protocol: The inhibitory effect of the cyclic amine derivative (I) or a pharmacologically acceptable salt thereof on the binding between a ligand-binding domain of RORγ (hereinafter referred to as RORγ-LBD) and a coactivator was evaluated using Invitrogen's LanthaScreen™TR-FRET Retinoid-Related Orphan Receptor (ROR) gamma Coactivator Assay kit utilizing time-resolved fluorescence energy transfer (TR-FRET).
The test compound was dissolved in DMSO and diluted with TR-FRET Coregulator Buffer D (Invitrogen) containing 5 mmol/L of DTT to have a final DMSO concentration of 1% before use. To each well of a 384-well black plate (Corning Inc.), 4 nmol/L of GST-fused RORγ-LBD (Invitrogen) diluted with the buffer mentioned above and the test compound were added. A well without addition of the test compound and without addition of GST-fused RORγ-LBD (background) and a well without addition of the test compound and with addition of GST-fused RORγ-LBD (control) were prepared. Next, 150 nmol/L of fluorescein-labeled TRAP220/DRIP-2 (Invitrogen) diluted with the buffer mentioned above and 32 nmol/L of terbium-labeled anti-GST antibody (Invitrogen) were added to each well. After incubating the plate at room temperature for 16 to 24 hours, the fluorescence at 495 nm and 520 nm when excited at 320 nm was measured for each well and the ratio (fluorescence value at 520 nm/fluorescence value at 495 nm) was calculated.
The fold change with addition of the test compound (ratio with addition of the test compound/ratio of the background), the fold change of the control (ratio of the control/ratio of the background), and the fold change of the background (ratio of the background/ratio of the background) were calculated, and then the inhibition rate of binding between RORγ-LBD and a coactivator (hereinafter referred to as RORγ-coactivator binding inhibition rate) (%) was calculated from Formula 1: RORγ-coactivator binding inhibition rate(%)=(1−((Fold change with addition of the test compound)−(Fold change of the background))/((Fold change of the control)−(Fold change of the background)))×100 Formula 1

First: CC(=O)N1CCCCC1C(=O)Nc1ccc(-c2ccccc2OC(F)(F)F)c(Cl)c1 (stereo not shown) [Example 1, 1-acetyl-N-(2-chloro-2′-(trifluoromethoxy)-[1,1′-biphenyl]-4-yl)piperidine-2-carboxamide]
Second: CCC(=O)N1CCCCC1C(=O)Nc1ccc(-c2ccccc2OC(F)(F)F)c(Cl)c1 (stereo not shown) [Example 3, N-(2-chloro-2′-(trifluoromethoxy)-[1,1′-biphenyl]-4-yl)-1-propionylpiperidine-2-carboxamide]
The inhibition at 33 µM of the first is higher: 90.9% for the first, 88.2% for the second.

In the case of O=C(Nc1ccc(-c2ccccc2OC(F)(F)F)c(Cl)c1)C1CCCCN1C(=O)C(F)(F)F (stereo not shown) [Example 2, N-(2-chloro-2′-(trifluoromethoxy)-[1,1′-biphenyl]-4-yl)-1-(2,2,2-trifluoroacetyl)piperidine-2-carboxamide], the inhibition at 33 µM is reported as 91.9%.

Source: US10364222B2, “Cyclic amine derivative and medical use thereof” (Toray Industries, Inc., priority 2016, dated 2019)
